Holding throughout (format): cell-based
For one test, the system named is Miapaca2 tumor cells. Nature of the test: Test Example 4 cell killing study (CTG, 6 days). Conditions: Homo sapiens, MIA PaCa-2, 144 h, 6 days culture, read-out: IC50 (Miapaca). The source says: (§1) The objective of this study is to test the inhibitory activity of the anti-TROP-2 antibody (PD3)-drug conjugate of the present disclosure against the proliferation of different tumor cell lines: Miapaca2 tumor cells (human pancreatic cancer cells, Nanjing Kebai Biotechnology Co., Ltd., Cat #CBP60544), Fadu tumor cells (human squamous cell carcinoma, ATCC, Cat #HTB-43), SK-OV-3 (human ovarian cancer cells, ATCC, Cat #HTB-77), K562 (human chronic granulocytic leukemia cells, ATCC, Cat #CCL-243), HCC827 (human lung cancer cells, ATCC, Cat #CRL-2868) and BXPC3 (human pancreatic cancer cells, ATCC, Cat #CRL-1687). The cells were treated in vitro with the antibody drug conjugate at different concentrations. After 6 days of culture, the proliferation of cells was tested using CTG (CellTiter-Glo® Luminescent Cell Viability Assay, Promega, Cat #G7573) reagents, and the in vitro activity of the antibody drug conjugate was evaluated according to IC50 value.
(§2) 2) Cell plating: on the day of the study, after the cells were digested with Trypsin (0.25% Trypsin-EDTA (1×), Life Technologies, Cat #25200-072), MiaPaCa2, Fadu, SK-OV-3, K562, HCC827 and BXPC3 were suspended in cell suspensions using the corresponding media to a density of 3.7×10^3 cells/mL, and 135 μL of suspension was added into each well of a 96-well plate (coming, Cat #3903) to culture 500 cells per well at 37° C. for 24 h.
(§3) 3) Drug preparation: the mother liquor of the test ADC was first adjusted to have a concentration of 4 μM and was added to the first column of a drug preparation plate (coming, Cat #3599). The plate was diluted 5-fold in gradient from column 2 to column 9, with PBS in column 10. 15 μL of the mother liquor in each well was added to the cell culture plate.
(§4) 4) CTG assay: after being cultured at 37° C. for 6 days, the cell culture plate was removed and balanced to room temperature. 75 μL of CTG was added into each well and reacted at room temperature for 10 min in the dark. The absorption value was read using a microplate reader (BMG labtech, PHERAstar FS).
(§5) Data were processed and analyzed using Graphpad Prism 5.

A further test relates to HCC827. The test is described as follows: Test Example 4 cell killing study (CTG, 6 days). Particulars: Homo sapiens, HCC827, 144 h, 6 days culture.
From the text: as §1, §2, §3, §4, §5

In a further test the test system is K562. Nature of the test: Test Example 4 cell killing study (CTG, 6 days). Conditions: Homo sapiens, K562, 144 h, 6 days culture.
From the text: as §1, §2, §3, §4, §5

The test system of a further test is SK-OV-3. Nature of the test: Test Example 4 cell killing study (CTG, 6 days). Particulars: Homo sapiens, SK-OV-3, 144 h, 6 days culture, read-out: IC50 (SKOV3).
From the text: as §1, §2, §3, §4, §5

A further test has as its system Fadu tumor cells. Nature of the test: Test Example 4 cell killing study (CTG, 6 days). Conditions: Homo sapiens, 144 h, 6 days culture.
From the text: as §1, §2, §3, §4, §5

A further test concerns BXPC3. The test is described as follows: Test Example 4 cell killing study (CTG, 6 days). Conditions: Homo sapiens, BXPC-3, 144 h, 6 days culture.
From the text: as §1, §2, §3, §4, §5

The next test concerns MDA-MB-468. The test is described as follows: Test Example 2 in vitro cytotoxic activity screening (CTG). How it is done:
(§6) The CTG is used for detecting the ATP content in the experiment, and the survival condition of the tumor cells is reflected.
(§7) A549, SKBR3 and MDA-MB-468 were digested with trypsin, and each was resuspended in culture medium to a cell density of 2.2×10^4 cells/mL, and 135 μL of cell suspension was added to each well in columns 2 to 11 of a 96-well plate, and column 12 was set as blank control. The cells were incubated in an incubator for 24 h at 37° C. with 5% CO2.
(§8) a) Stock solution preparation: the test compound and positive control drug were dissolved in DMSO to give a stock solution at a concentration of 5 mM.
(§9) b) Drug preparation plate 1: stock solution in column 1 was initially diluted 40-fold, and 3-fold gradient dilutions were performed sequentially in column 2 to column 11. Column 12 was filled with DMSO.
(§10) c) Drug preparation plate 2: 196 μL of the corresponding culture medium was added into columns 2 to 11, and 4 μL of culture medium was pipetted from column 3 to column 12 of drug preparation plate 1 to column 2 to column 11 of drug preparation plate
(§11) 15 μL of culture medium was pipetted from the drug preparation plate 2 and added into the plated cells. The cells were continuously incubated in an incubator for 5 h at 37° C. with 5% CO2.
(§12) 2.4) CTG assay (Cell Titer-Glo™, luminescent cell viability assay): the cell plates were removed and balanced to room temperature. 75 μL of CTG was added into each well and reacted at room temperature for 10 min in the dark. The absorption value was read using a microplate reader and IC50 was calculated.

Another test deals with A549. The test is described as above. How it is done:
as §6, §7, §8, §9, §10, §11, §12

A further test deals with SKBR3. The description is as above. On the procedure:
as §6, §7, §8, §9, §10, §11, §12

The structures appear in SMILES notation.

By IC50 is commonly meant the concentration that gives 50% inhibition.

For `C=C1C[C@@H]2CC[C@@]34C[C@H]5O[C@H]6[C@@H](O3)[C@H]3O[C@H](CC[C@@H]3O[C@H]6[C@H]5O4)CC(=O)C[C@@H]3[C@@H](OC)[C@@H](C[C@H](O)CO)O[C@H]3C[C@H]3O[C@@H](CC[C@@H]1O2)C[C@@H](C)C3=C` [Compound E1-30, reference compound], the IC50 in the test on Miapaca2 tumor cells turned out to be 0.45 nM; with HCC827 it was 0.31 nM; in the test with K562 it was 0.39 nM; in the test with SK-OV-3, 0.17 nM; in the test with Fadu tumor cells, 0.32 nM; with BXPC3, 0.23 nM. Besides, the IC50 in the test with MDA-MB-468 (Homo sapiens, MDA-MB-468, 5 h) stood at 0.36 nM; with A549 (Homo sapiens, A549, 5 h), 0.781 nM; with SKBR3 (Homo sapiens, SK-BR-3, 5 h), 0.166 nM. Also, the Maximum inhibition in the test on MDA-MB-468 (MDA-MB-468, CTG, incubated 5 h) is 90.49%; in the test with A549 (A549, CTG, incubated 5 h), 62.46%; with SKBR3 (SKBR3, CTG, incubated 5 h) it was 96.15%.

Values taken from patent US20230144203A1 (SHANGHAI SENHUI MEDICINE CO., LTD., priority 2020, published 2023).
